Results: EP4603105A1, “PHARMACEUTICAL COMPOSITION CONTAINING CYCLIC COMPOUND HAVING SELECTIVE KRAS INHIBITORY EFFECT AGAINST HRAS AND NRAS” (CHUGAI SEIYAKU KABUSHIKI KAISHA, priority 2022, dated 2024)
Like-named read-outs stand apart in the source and are kept apart here.

Experiments:
[1] = molecular target: GDP-bound KRAS wild-type protein (Homo sapiens, UniProt P01116); assay: Binding to KRAS by surface plasmon resonance (SPR), dissociation constant KD
How it was run: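 Running buffer contained 10 µM GDP and 10 mM MgCl2 to keep RAS in the GDP state, with 4% DMSO at pH 7.4. Compounds were flowed at 100 µL/min in 75 s steps of rising concentration over captured biotin-Avi RAS at 30°C. Sensorgrams were fitted 1:1 for KD.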

[2] = molecular target: GDP-bound NRAS wild-type protein (Homo sapiens, UniProt P01111); assay: Binding to NRAS by surface plasmon resonance (SPR), KD and KD ratio to KRAS
GDP-bound NRAS wild-type protein, sequence (P01111 whole entry): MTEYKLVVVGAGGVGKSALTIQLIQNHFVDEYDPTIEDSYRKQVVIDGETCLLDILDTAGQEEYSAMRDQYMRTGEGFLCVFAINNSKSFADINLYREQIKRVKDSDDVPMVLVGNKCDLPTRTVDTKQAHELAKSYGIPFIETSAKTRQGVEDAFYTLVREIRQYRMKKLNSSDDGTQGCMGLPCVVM
How it was run: (§1)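 Single-cycle kinetics on GDP-loaded biotin-Avi RAS captured to ~100–300 RU; 75 s ascending injections, 100 µL/min, 30°C. HBS pH 7.4 + 10 mM MgCl2/10 µM GDP/4% DMSO. 1:1 fit, KD.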

[3] = molecular target: HRAS wild-type protein (Homo sapiens, UniProt P01112); assay: Binding to HRAS by surface plasmon resonance (SPR), KD and KD ratio to KRAS
HRAS wild-type protein, sequence (P01112 whole entry): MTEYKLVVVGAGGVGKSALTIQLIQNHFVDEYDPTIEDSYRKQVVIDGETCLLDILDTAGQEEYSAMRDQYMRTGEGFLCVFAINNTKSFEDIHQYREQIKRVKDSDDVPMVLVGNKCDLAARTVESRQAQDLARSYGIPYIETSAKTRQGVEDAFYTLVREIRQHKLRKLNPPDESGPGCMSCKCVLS
How it was run: as §1

[4] = tested on: human lung cancer strain NCI-H441; assay: NCI-H441 cell proliferation inhibitory activity (CellTiter-Glo, 4 days); type: cell-based; conditions: read-out: NCl-H441 IC50
How it was run: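 Proliferation was scored by […] measured after the reagent was added to cultures kept at 37°C in 5% carbon dioxide.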

[5] = ratio of KD for GDP-bound NRAS wild-type protein to KD for KRAS
[6] = ratio of KD for HRAS wild-type protein to KD for KRAS
[7] = Single Cycle Kinetics, 1:1 binding model
[8] = ratio of KD with respect to GDP-bound NRAS wild-type protein to KD with respect to KRAS
[9] = ratio of KD with respect to HRAS wild-type protein to KD with respect to KRAS
[10] = 50% proliferation inhibitory concentration, four days

GDP-bound KRAS wild-type protein, sequence (P01116 1-188 isoform P01116-2): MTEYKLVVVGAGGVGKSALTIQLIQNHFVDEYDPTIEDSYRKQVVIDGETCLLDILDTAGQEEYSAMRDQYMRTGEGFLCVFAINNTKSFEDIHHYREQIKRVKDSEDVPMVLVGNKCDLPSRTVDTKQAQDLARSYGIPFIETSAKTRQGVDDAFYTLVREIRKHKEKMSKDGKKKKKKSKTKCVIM

Compound | Kd ([1]; 1:1 binding model) [nM] | NRAS /KRAS [2, 5] | HRAS /KRAS [3, 6] | IC50 ([4]; NCI-H441 cells, 4 days) [nM] | Kd ([1]; Single Cycle Kinetics) [nM] | Kd [1, 7] [nM] | NRAS /KRAS [2, 8] | HRAS /KRAS [3, 9] | IC50 [4, 10] [nM]
CCC[C@H]1C(=O)N[C@@H]([C@@H](C)CC)C(=O)N(C2CC2)CC(=O)N(C)[C@H]2C/C=C\CCN(C2=O)[C@@H](Cc2ccc(C)cc2)C(=O)N(C)CC(=O)N[C@@H](CCc2ccc(Cl)c(Cl)c2)C(=O)N2C[C@H](OC3CCC3)C[C@H]2C(=O)NC2(CC(C)(C)C2)C(=O)N(C)[C@@H](C2CCCC2)C(=O)N(C)[C@H](C(=O)N(C)C)CC(=O)N1C [PP2616] | 0.8 | A (a compound having 10 or more and less than 20 is denoted as A) | A (a compound having 10 or more and less than 20 is denoted as A) | 66.4 |  |  |  |  | 
CCO[C@@H]1C[C@H]2C(=O)OC3(CCC3)C(=O)N(C)[C@@H](C3CCCC3)C(=O)N(C)[C@H](C(=O)N(C)C)CC(=O)N(C)[C@@H]([C@H](C)OC)C(=O)N[C@@H]([C@@H](C)CC)C(=O)N(C)CC(=O)N(C)[C@H]3C/C=C\CCN(C3=O)[C@@H](Cc3ccc(C(F)(F)F)cc3)C(=O)N(C)CC(=O)N[C@@H](CCc3ccc(C(F)(F)F)c(OC)c3)C(=O)N2C1 [PP3379] |  | A (a compound having 10 or more and less than 20 is denoted as A) | B (a compound having 3 or more and less than 10 is denoted as B) | 9.5 | 0.24 |  |  |  | 
CCC[C@H]1C(=O)N[C@@H](C2CCCC2)C(=O)N(C)CC(=O)N(C)[C@H]2C/C=C\CCN(C2=O)[C@@H](Cc2ccc(C)cc2)C(=O)N(C)CC(=O)N[C@@H](CCc2ccc(C(F)(F)F)c(Cl)c2)C(=O)N2CC3(CC3)C[C@H]2C(=O)NC2(CCC2)C(=O)N(C)[C@@H]([C@@H](C)CC)C(=O)N(C)[C@H](C(=O)N(C)C)CC(=O)N1C [PP3434] |  | A (a compound having 10 or more and less than 20 is denoted as A) | A (a compound having 10 or more and less than 20 is denoted as A) | 26.8 | 0.76 |  |  |  | 
C=C(C)C[C@H]1C(=O)N(C)[C@H](C(=O)N(C)C)CC(=O)N(C)[C@@H](CCC)C(=O)N[C@@H]([C@@H](C)CC)C(=O)N2CCC[C@H]2C(=O)N(C)[C@H]2C/C=C\CCN(C2=O)[C@@H](Cc2ccc(C(F)(F)F)cc2)C(=O)N(C)CC(=O)N[C@@H](CCc2ccc(C(F)(F)F)c(OC)c2)C(=O)N2C[C@H](OCC)C[C@H]2C(=O)N(C)C2(CCC2)C(=O)N1C [PP3335] |  | A (a compound having 10 or more and less than 20 is denoted as A) | A (a compound having 10 or more and less than 20 is denoted as A) | 90.6 | 2.5 |  |  |  | 
CCO[C@@H]1C[C@H]2C(=O)NC3(CCCC3)C(=O)N(C)[C@@H](C3CCCC3)C(=O)N(C)[C@H](C(=O)N(C)C)CC(=O)N(C)[C@@H]([C@@H](C)OC)C(=O)N[C@@H]([C@@H](C)CC)C(=O)N3CCC[C@H]3C(=O)N(C)[C@H]3C/C=C\CCN(C3=O)[C@@H](Cc3ccc(C)cc3)C(=O)N(C)CC(=O)N[C@@H](CCc3cc(F)c(C(F)(F)F)c(F)c3)C(=O)N2C1 [PP3483] |  | A (a compound having 10 or more and less than 20 is denoted as A) | A (a compound having 10 or more and less than 20 is denoted as A) | 55.8 | 0.88 |  |  |  | 
CCC[C@H]1C(=O)N[C@@H]([C@@H](C)CC)C(=O)N(C2CC2)CC(=O)N(C)[C@H]2C/C=C\CCN(C2=O)[C@@H](Cc2ccc(C)cc2)C(=O)N(C)CC(=O)N[C@@H](CCc2cc(F)c(C(F)(F)F)c(F)c2)C(=O)N2C[C@H](OCC)C[C@H]2C(=O)NC2(CC(C)(C)C2)C(=O)N(C)[C@@H](CC(C)(C)C)C(=O)N(C)[C@H](C(=O)N(C)C)CC(=O)N1C [PP2718] | 0.33 | A (a compound having 10 or more and less than 20 is denoted as A) | A (a compound having 10 or more and less than 20 is denoted as A) | 7.6 |  |  |  |  | 
CCO[C@@H]1C[C@H]2C(=O)NC3(CCC3)C(=O)N(C)[C@@H](C3CCCC3)C(=O)N(C)[C@H](C(=O)N3CCOCC3)CC(=O)N(C)[C@@H](Cc3ccccc3C#N)C(=O)N[C@@H]([C@@H](C)CC)C(=O)N(C)CC(=O)N(C)[C@H]3CCCCCN(C3=O)[C@@H](Cc3ccc(F)cc3)C(=O)N(C)CC(=O)N[C@@H](CCc3cc(F)c(C(F)(F)F)c(F)c3)C(=O)N2C1 [PP1185] |  |  |  |  |  | 0.5 | B (a compound having 3 or more and less than 10 is denoted as B) | B (a compound having 3 or more and less than 10 is denoted as B) | 175
CCC[C@H]1C(=O)N[C@@H]([C@@H](C)CC)C(=O)N(C)CC(=O)N(C)[C@H]2C/C=C\CCN(C2=O)[C@@H](CC2CCC(F)(F)CC2)C(=O)N(C)CC(=O)N[C@@H](CCc2ccc(C(F)(F)F)c(OC)c2)C(=O)N2C[C@@H](C)C[C@H]2C(=O)NC2(CC(C)(C)C2)C(=O)N(C)[C@@H](C(CC)CC)C(=O)N(C)[C@H](C(=O)N(C)C)CC(=O)N1C [PP2497] | 1.5 | A (a compound having 10 or more and less than 20 is denoted as A) | A (a compound having 10 or more and less than 20 is denoted as A) | 84.8 |  |  |  |  | 
CCO[C@@H]1C[C@H]2C(=O)NC3(CCC3)C(=O)N(C)[C@@H](C3CCCC3)C(=O)N(C)[C@H](C(=O)N(C)C)CC(=O)N(C)[C@@H](CC(C)C)C(=O)N[C@@H]([C@@H](C)CC)C(=O)N(C)CC(=O)N(C)[C@H]3C/C(F)=C\CCN(C3=O)[C@@H](Cc3ccc(C(F)(F)F)cc3)C(=O)N(C)CC(=O)N[C@@H](CCc3cc(F)c(C(F)(F)F)c(F)c3)C(=O)N2C1 [PP3514] |  | B (a compound having 3 or more and less than 10 is denoted as B) | B (a compound having 3 or more and less than 10 is denoted as B) | 12.2 | 0.17 |  |  |  | 
CCOC[C@H]1C(=O)N[C@@H]([C@@H](C)CC)C(=O)N(C)CC(=O)N(C)[C@H]2C/C=C\CCN(C2=O)[C@@H](Cc2ccc(C)cc2)C(=O)N(C)CC(=O)N[C@@H](CCc2ccc(C(F)(F)F)c(OC)c2)C(=O)N2C[C@@H](C)C[C@H]2C(=O)NC2(CC(C)(C)C2)C(=O)N(C)[C@@H](C2CCCC2)C(=O)N(C)[C@H](C(=O)N(CC)CC)CC(=O)N1C [PP2405] | 0.31 | A (a compound having 10 or more and less than 20 is denoted as A) | A (a compound having 10 or more and less than 20 is denoted as A) | 8.6 |  |  |  |  | 
CCCO[C@@H]1C[C@H]2C(=O)NC3(CC(C)(C)C3)C(=O)N(C)[C@@H](C3CCCC3)C(=O)N(C)[C@H](C(=O)N(C)CC)CC(=O)N(C)[C@@H](COCC)C(=O)N[C@@H]([C@@H](C)CC)C(=O)N3CCC[C@H]3C(=O)N(C)[C@H]3C/C=C\CCN(C3=O)[C@@H](Cc3ccc(C)cc3)C(=O)N(C)CC(=O)N[C@@H](CCc3ccc(C(F)(F)F)c(OC)c3)C(=O)N2C1 [PP3467] |  | A (a compound having 10 or more and less than 20 is denoted as A) | A (a compound having 10 or more and less than 20 is denoted as A) | 60.2 | 1.3 |  |  |  | 
CCC[C@H]1C(=O)N[C@@H]([C@@H](C)CC)C(=O)N(C)CC(=O)N(C)[C@H]2C/C=C\CCN(C2=O)[C@@H](Cc2ccc(C)cc2)C(=O)N(C)CC(=O)N[C@@H](CCc2ccc(C(F)(F)F)c(Cl)c2)C(=O)N2CC3(CC3)C[C@H]2C(=O)N(C)C2(CCC2)C(=O)N(C)[C@@H](C(CC)CC)C(=O)N(C)[C@H](C(=O)N(C)C)CC(=O)N1C [PP3300] |  | A (a compound having 10 or more and less than 20 is denoted as A) | B (a compound having 3 or more and less than 10 is denoted as B) | 11.2 | 0.13 |  |  |  | 
CCC[C@H]1C(=O)N[C@@H]([C@@H](C)CC)C(=O)N(C)CC(=O)N(C)[C@H]2C/C=C\CCN(C2=O)[C@@H](Cc2ccc(C)cc2)C(=O)N(C)CC(=O)N[C@@H](CCc2ccc(Cl)c(Cl)c2)C(=O)N2C[C@H](OCC)C[C@H]2C(=O)NC2(CC(C)(C)C2)C(=O)N(C)[C@@H](CC(C)(C)C)C(=O)N(C)[C@H](C(=O)N(C)C)CC(=O)N1C [PP2714] | 0.25 | A (a compound having 10 or more and less than 20 is denoted as A) | A (a compound having 10 or more and less than 20 is denoted as A) | 13.2 |  |  |  |  | 
CCC[C@H]1C(=O)N[C@@H]([C@@H](C)CC)C(=O)N2C[C@@H](OC)C[C@H]2C(=O)N(C)[C@H]2C/C=C\CCN(C2=O)[C@@H](Cc2ccc(C)cc2)C(=O)N(C)CC(=O)N[C@@H](CCc2cc(F)c(C(F)(F)F)c(F)c2)C(=O)N2C[C@H](OCC)C[C@H]2C(=O)NC2(CC(C)(C)C2)C(=O)N(C)[C@@H](C2CCCC2)C(=O)N(C)[C@H](C(=O)N(C)C)CC(=O)N1C [PP2556] | 0.21 | A (a compound having 10 or more and less than 20 is denoted as A) | B (a compound having 3 or more and less than 10 is denoted as B) | 9.4 |  |  |  |  | 
CCO[C@@H]1C[C@H]2C(=O)NC3(CCC3)C(=O)N(C)[C@@H](C3CCCC3)C(=O)N(C)[C@H](C(=O)N3CCCC3)CC(=O)N(C)[C@@H](CC3CCC3)C(=O)N[C@@H]([C@@H](C)CC)C(=O)N(C)CC(=O)N(C)[C@H]3C/C=C\CCN(C3=O)[C@@H](Cc3ccc(C)cc3)C(=O)N(C)CC(=O)N[C@@H](CCc3cc(F)c(C(F)(F)F)c(F)c3)C(=O)N2C1 [PP1425] |  |  |  |  |  | 0.24 | A (a compound having 10 or more and less than 20 is denoted as A) | B (a compound having 3 or more and less than 10 is denoted as B) | 20.2
